Test results reported in ChEMBL document CHEMBL5365532, “Discovery of Triazinone Derivatives as Novel, Specific, and Direct NLRP3 Inflammasome Inhibitors for the Treatment of DSS-Induced Ulcerative Colitis” (J Med Chem, 2023).
pIC50: −log10 of the molar value. The source made the active and inactive calls. The rule behind the calls is not given here.

Experiments:
[1] = molecular target: T1, Interferon-inducible protein AIM2 (Mus musculus) (UniProt Q91VJ1); assay: Inhibition of AIM2 inflammasome in C57BL/6 mouse BMDM cells assessed as inhibition of LPS/poly(dA:dT)-induced IL-1 beta secretion at 0.2 to 0.8 uM pretreated with LPS for 3 hrs followed by incubation with compound for 40 mins and later stimulated with poly(dA:dT) for 6 hrs by ELISA; assay type: cell-based; conditions: dose 0.2-0.8 µM, time 400.0 min
T1 sequence (whole entry): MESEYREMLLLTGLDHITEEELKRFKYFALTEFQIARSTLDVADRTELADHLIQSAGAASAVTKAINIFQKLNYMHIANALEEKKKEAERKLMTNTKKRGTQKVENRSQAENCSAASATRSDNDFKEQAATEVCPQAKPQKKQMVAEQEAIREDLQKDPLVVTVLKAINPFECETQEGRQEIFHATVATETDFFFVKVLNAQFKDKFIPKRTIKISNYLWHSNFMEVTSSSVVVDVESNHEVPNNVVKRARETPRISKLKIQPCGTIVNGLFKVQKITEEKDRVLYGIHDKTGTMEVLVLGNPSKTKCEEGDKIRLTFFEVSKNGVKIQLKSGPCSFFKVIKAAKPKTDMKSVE

[2] = molecular target: NACHT, LRR and PYD domains-containing protein 3 (Mus musculus) (UniProt Q8R4B8); assay: Inhibition of NLRP3 inflammasome in C57BL/6 mouse BMDM cells assessed as inhibition of LPS/MSU-induced IL-1 beta secretion at 0.2 to 0.8 uM pretreated with LPS for 3 hrs followed by incubation with compound for 40 mins and later stimulated with MSU for 12 hrs by ELISA; assay type: cell-based; conditions: dose 0.2-0.8 µM, time 760.0 min
NACHT, LRR and PYD domains-containing protein 3 (Mus musculus), sequence (Q8R4B8 whole entry, the tested form may be a part): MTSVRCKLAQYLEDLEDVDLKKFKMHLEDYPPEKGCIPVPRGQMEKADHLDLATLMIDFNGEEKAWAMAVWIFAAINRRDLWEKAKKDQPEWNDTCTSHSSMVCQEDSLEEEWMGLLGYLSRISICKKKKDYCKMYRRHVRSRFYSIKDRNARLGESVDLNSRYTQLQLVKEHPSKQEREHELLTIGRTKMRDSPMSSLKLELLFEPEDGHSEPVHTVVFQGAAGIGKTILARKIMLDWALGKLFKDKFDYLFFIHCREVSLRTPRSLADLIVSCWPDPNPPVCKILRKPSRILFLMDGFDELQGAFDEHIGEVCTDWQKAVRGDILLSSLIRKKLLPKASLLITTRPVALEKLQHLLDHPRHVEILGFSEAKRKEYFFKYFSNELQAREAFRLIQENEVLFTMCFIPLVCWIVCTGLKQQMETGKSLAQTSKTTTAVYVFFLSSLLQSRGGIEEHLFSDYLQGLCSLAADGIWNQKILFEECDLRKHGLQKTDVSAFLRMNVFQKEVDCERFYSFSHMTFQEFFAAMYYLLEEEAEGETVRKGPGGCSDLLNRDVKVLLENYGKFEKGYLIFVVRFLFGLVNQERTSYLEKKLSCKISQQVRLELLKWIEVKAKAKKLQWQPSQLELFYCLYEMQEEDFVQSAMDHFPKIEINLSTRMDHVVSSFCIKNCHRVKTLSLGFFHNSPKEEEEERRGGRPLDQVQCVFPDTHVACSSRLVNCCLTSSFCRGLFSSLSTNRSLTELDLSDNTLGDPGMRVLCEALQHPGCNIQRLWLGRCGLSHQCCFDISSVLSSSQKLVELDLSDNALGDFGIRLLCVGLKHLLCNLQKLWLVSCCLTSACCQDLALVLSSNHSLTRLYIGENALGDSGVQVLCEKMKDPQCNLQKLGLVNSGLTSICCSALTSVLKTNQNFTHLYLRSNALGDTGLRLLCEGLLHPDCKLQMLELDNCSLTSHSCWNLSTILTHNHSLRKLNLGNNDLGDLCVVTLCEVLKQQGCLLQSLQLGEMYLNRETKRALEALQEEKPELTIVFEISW

THP-1 = assay: Effect on NLRP3 protein expression in PMA-differentiated human THP-1 cells at 0.2 to 0.8 uM pretreated with compound for 40 mins followed by LPS challenge for 3 hrs by western blot analysis; assay type: functional, cell-based; conditions: dose 0.2-0.8 µM, time 220.0 min
[3] = molecular target: NLR family CARD domain-containing protein 4 (Mus musculus) (UniProt Q3UP24); assay: Inhibition of NLRC4 inflammasome in C57BL/6 mouse BMDM cells assessed as inhibition of LPS/flagellin-induced IL-1 beta secretion at 0.2 to 0.8 uM pretreated with LPS for 3 hrs followed by incubation with compound for 40 mins and later stimulated with flagellin for 6 hrs by ELISA; assay type: cell-based; conditions: dose 0.2-0.8 µM, time 400.0 min
NLR family CARD domain-containing protein 4 (Mus musculus), sequence (Q3UP24 whole entry, the tested form may be a part): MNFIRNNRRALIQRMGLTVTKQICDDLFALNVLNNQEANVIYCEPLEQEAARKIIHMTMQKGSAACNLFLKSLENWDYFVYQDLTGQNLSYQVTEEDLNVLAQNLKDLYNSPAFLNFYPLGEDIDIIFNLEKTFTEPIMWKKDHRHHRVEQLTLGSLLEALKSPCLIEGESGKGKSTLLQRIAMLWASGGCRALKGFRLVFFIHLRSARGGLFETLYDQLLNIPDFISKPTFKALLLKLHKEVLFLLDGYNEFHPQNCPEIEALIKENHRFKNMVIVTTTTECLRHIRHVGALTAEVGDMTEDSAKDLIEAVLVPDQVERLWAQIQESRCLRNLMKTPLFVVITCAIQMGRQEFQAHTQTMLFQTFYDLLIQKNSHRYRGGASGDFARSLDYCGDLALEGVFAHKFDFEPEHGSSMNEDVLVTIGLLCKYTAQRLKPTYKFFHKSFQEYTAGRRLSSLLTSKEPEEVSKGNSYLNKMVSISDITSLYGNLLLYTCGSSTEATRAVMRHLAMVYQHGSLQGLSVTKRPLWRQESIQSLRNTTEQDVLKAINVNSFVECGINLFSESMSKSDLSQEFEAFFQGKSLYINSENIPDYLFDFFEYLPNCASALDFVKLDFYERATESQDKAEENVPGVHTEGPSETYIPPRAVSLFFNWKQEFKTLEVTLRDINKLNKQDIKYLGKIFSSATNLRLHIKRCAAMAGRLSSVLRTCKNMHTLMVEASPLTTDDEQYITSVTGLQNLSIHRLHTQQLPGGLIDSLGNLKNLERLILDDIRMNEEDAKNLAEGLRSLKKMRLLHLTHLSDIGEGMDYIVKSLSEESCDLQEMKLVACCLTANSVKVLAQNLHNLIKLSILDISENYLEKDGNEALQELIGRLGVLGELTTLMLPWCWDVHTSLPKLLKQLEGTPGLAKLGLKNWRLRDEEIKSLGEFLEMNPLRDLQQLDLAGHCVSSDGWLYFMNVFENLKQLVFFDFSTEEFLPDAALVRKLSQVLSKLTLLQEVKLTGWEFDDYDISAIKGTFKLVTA

[4] = Cmax in BALB/c mouse at 10 mg/kg, iv; assay type: ADME, organism-based; parameters: dose 10 mg/kg, route iv; conditions: in vivo
Mus musculus [5] = assay: Antiinflammatory activity against DSS-induced ulcerative colitis C57BL/6 mouse model assessed as decrease in inflammatory cell infiltration in colon at 10 to 30 mg/kg, ip fed with DSS for 6 days followed by administration with compound for 5 days and measured on day 11 by H and E staining based analysis; assay type: functional, organism-based; conditions: dose 10-30 mg/kg, time 5.0 day
[6] = Tmax in BALB/c mouse at 10 mg/kg, iv; assay type: ADME, organism-based; conditions: in vivo
[7] = molecular target: NACHT, LRR and PYD domains-containing protein 3 (Mus musculus, UniProt Q8R4B8); assay: Inhibition of NLRP3 inflammasome in C57BL/6 mouse BMDM cells assessed as inhibition of LPS/nigericin-induced IL-1 beta secretion pretreated with LPS for 3 hrs followed by incubation with compound for 40 mins and later stimulated with nigericin for 35 mins by ELISA; assay type: cell-based
NACHT, LRR and PYD domains-containing protein 3, sequence (Q8R4B8 whole entry, the tested form may be a part): as the sequence (Q8R4B8 whole entry, the tested form may be a part) above

Mus musculus [8] = assay: Antiinflammatory activity against DSS-induced ulcerative colitis C57BL/6 mouse model assessed as decrease in TNF-alpha level in colon at 10 to 30 mg/kg, ip fed with DSS for 6 days followed by administration with compound for 5 days and measured on day 11 by ELISA; assay type: functional, organism-based; conditions: dose 10-30 mg/kg, time 5.0 day
[9] = MRT (0 to t) in BALB/c mouse at 10 mg/kg, iv; assay type: ADME, organism-based; conditions: in vivo

inhibition [1]: inactive
inhibition [2]: Active
inhibition [3]: inactive
Cmax [4]: 3890 ng/mL
Tmax [6]: 4.8 min
pIC50 [7]: 6.42
MRT last [9]: 92.4 min
Compound: CC(C)c1nn(Cc2nnc(-c3ccc(C(F)(F)F)nc3Cl)o2)c(=O)c2cc3sc(Cl)cc3n12
Activity (THP-1): inactive
Activity (Mus musculus [5]): Active
Activity (Mus musculus [8]): Active
